According to patent US11927585B2, “Solvent-based inks and coatings for food contact applications” (SUN CHEMICAL CORPORATION, priority 2020, dated 2024):
Where a name gives a salt, the structure may show the parent alone.

What was measured:
[1] = source PR (EU Plastics Regulation No. 10/2011) or SO (Swiss Ordinance); EU Cube model; cited from earlier work
[2] = Worst-case calculation, Application 1 yoghurt pot lid exposure scenario; conditions: 100% migration, 2.0 g/m^2 dry film
[3] = Worst-case calculation (100% migration), standard EU Cube exposure model; conditions: 100% migration; for Worst-case calculation as a percentage of SML (or restriction), EU Cube: 2.0 g/m^2 dry film; for Worst Case Calculation of migration in EU Cube model (as a percentage of SML): dry coat weight 2.0 g/m^2
[4] = Worst-case calculation, Application 2 cheese packaging wrap exposure scenario; conditions: 100% migration, 2.0 g/m^2 dry film

Worst-case calculation as a percentage of SML (or restriction), Application 1 ([2]; product SBDEV976): 21.7 percentage of SML (or restriction)
Worst-case calculation as a percentage of SML (or restriction), Application 1 ([2]; product SBDEV977): 20.9 percentage of SML (or restriction)
Worst-case calculation as a percentage of SML (or restriction), Application 1 ([2]; product SBDEV979): 20.8 percentage of SML (or restriction)
Worst-case calculation as a percentage of SML (or restriction), Application 1 ([2]; product SBDEV980): 21.0 percentage of SML (or restriction)
Worst-case calculation as a percentage of SML (or restriction), Application 1 ([2]; product SBDEV1284): 20.73 percentage of SML (or restriction)
Worst-case calculation as a percentage of SML (or restriction), Application 1 ([2]; product SBDEV1285): 20.73 percentage of SML (or restriction)
Worst-case calculation as a percentage of SML (or restriction), Application 1 ([2]; product SBDEV1286): 20.73 percentage of SML (or restriction)
Worst-case calculation as a percentage of SML (or restriction), Application 1 ([2]; product SBDEV1287): 20.73 percentage of SML (or restriction)
Worst-case calculation as a percentage of SML (or restriction), EU Cube ([3]; product SBDEV976): 55.2 percentage of SML (or restriction)
Worst-case calculation as a percentage of SML (or restriction), EU Cube ([3]; product SBDEV977): 53.2 percentage of SML (or restriction)
Worst-case calculation as a percentage of SML (or restriction), EU Cube ([3]; product SBDEV979): 52.8 percentage of SML (or restriction)
Worst-case calculation as a percentage of SML (or restriction), EU Cube ([3]; product SBDEV980): 53.4 percentage of SML (or restriction)
Worst-case calculation as a percentage of SML (or restriction), EU Cube ([3]; product SBDEV1284): 52.8 percentage of SML (or restriction)
Worst-case calculation as a percentage of SML (or restriction), EU Cube ([3]; product SBDEV1285): 52.8 percentage of SML (or restriction)
Worst-case calculation as a percentage of SML (or restriction), EU Cube ([3]; product SBDEV1286): 52.8 percentage of SML (or restriction)
Worst-case calculation as a percentage of SML (or restriction), EU Cube ([3]; product SBDEV1287): 52.8 percentage of SML (or restriction)
Worst Case Calculation of migration in EU Cube model (as a percentage of SML) ([3]; substance in ink SBDEV976 (Ex. 4C Cyan)): 55.2 percentage of SML
Worst Case Calculation of migration in EU Cube model (as a percentage of SML) ([3]; substance in ink SBDEV977 (Ex. 4A Yellow)): 53.2 percentage of SML
Worst Case Calculation of migration in EU Cube model (as a percentage of SML) ([3]; substance in ink SBDEV979 (Ex. 4D Black)): 52.8 percentage of SML
Worst Case Calculation of migration in EU Cube model (as a percentage of SML) ([3]; substance in ink SBDEV980 (Ex. 4B Red)): 53.4 percentage of SML
Worst-case calculation as a percentage of SML (or restriction), Application 2 ([4]; product SBDEV976): 79.6 percentage of SML (or restriction)
Worst-case calculation as a percentage of SML (or restriction), Application 2 ([4]; product SBDEV977): 76.7 percentage of SML (or restriction)
Worst-case calculation as a percentage of SML (or restriction), Application 2 ([4]; product SBDEV979): 76.0 percentage of SML (or restriction)
Worst-case calculation as a percentage of SML (or restriction), Application 2 ([4]; product SBDEV980): 76.9 percentage of SML (or restriction)
Worst-case calculation as a percentage of SML (or restriction), Application 2 ([4]; product SBDEV1284): 76.01 percentage of SML (or restriction)
Worst-case calculation as a percentage of SML (or restriction), Application 2 ([4]; product SBDEV1285): 76.01 percentage of SML (or restriction)
Worst-case calculation as a percentage of SML (or restriction), Application 2 ([4]; product SBDEV1286): 76.01 percentage of SML (or restriction)
Worst-case calculation as a percentage of SML (or restriction), Application 2 ([4]; product SBDEV1287): 76.01 percentage of SML (or restriction)
Structure (SMILES): CCCCOC(=O)CC(O)(CC(=O)OCCCC)C(=O)OCCCC [0000077-94-1, Tributyl citrate]
SML or Restriction (mg substance/kg food) [1]: 0.05 mg substance/kg food
